From ChEMBL document CHEMBL1275593 (2010)
In brackets after ≈: the same amount, converted by molar mass.

Key:
Bacillus anthracis [1] = experiment: microbe, parasite or virus in culture; conditions: BA104
Bacillus anthracis [2] = experiment: microbe, parasite or virus in culture; conditions: BA103

`O=C(O)c1cn(C2CC2)c2cc(N3CCNCC3)c(F)cc2c1=O` [CIPROFLOXACIN] was tested, and the MIC (Bacillus anthracis [1]) was 0.064 mg/L (≈ 0.193 µM) and the MIC (Bacillus anthracis [2]) was 0.064 mg/L (≈ 0.193 µM).
